Assay results from article PMC10755693, “Widespread Family of NAD^+-Dependent Sulfoquinovosidases at the Gateway to Sulfoquinovose Catabolism” (Journal of the American Chemical Society, 2023).

Biological target: T1, ArSqgA (Arthrobacter sp. U41, UniProt Z9RXK5N058)
T1 construct: synthetic gene with codons harmonized for E. coli; homodimer; GH188
T1 sequence (Z9RXK5N058 14-392): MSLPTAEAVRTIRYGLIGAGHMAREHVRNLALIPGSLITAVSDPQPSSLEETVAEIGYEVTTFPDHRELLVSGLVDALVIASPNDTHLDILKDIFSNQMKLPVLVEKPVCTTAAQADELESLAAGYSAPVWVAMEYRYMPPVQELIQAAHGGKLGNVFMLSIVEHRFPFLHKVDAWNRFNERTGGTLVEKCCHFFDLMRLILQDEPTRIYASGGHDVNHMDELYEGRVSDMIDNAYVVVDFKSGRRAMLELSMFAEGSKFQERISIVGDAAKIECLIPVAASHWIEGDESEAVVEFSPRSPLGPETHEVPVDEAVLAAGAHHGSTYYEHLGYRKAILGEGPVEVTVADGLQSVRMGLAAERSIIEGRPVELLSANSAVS
Assay: X-ray crystal structure, […] Å
Assay type: binding
Conditions: Rossmann domain cleft; binary complex

NC(=O)c1ccc[n+]([C@@H]2O[C@H](COP(=O)(O)OP(=O)(O)OC[C@H]3O[C@@H](n4cnc5c(N)ncnc54)[C@H](O)[C@@H]3O)[C@@H](O)[C@H]2O)c1 [NAD^+]
X-ray crystal structure, 2.65 Å: modeling of a single molecule of NAD^+ bound in an extended conformation in each monomer
